Assay results from EP4043435A1, “COMPOUND FOR DETECTING SENESCENT CELLS AND USE THEREOF” (Universitat Politècnica de València, priority 2019, dated 2021).

How the values were obtained:
4T1 cells [1] = test: Confocal microscopy of fluorescence emission in control and Palbociclib-induced senescent cells; type: cell-based, mouse
Description: Mouse mammary carcinoma 4T1 cells were cultured in DMEM supplemented with 10 % FBS and incubated in 20 % O2 and 5 % CO2 at 37 °C. The cells were incubated with 5 µM of Palbociclib in DMEM for one week to induce the senescence process. Subsequently, the cells were seeded in a flat clear-bottom 96-well plate with a density of 6000 cells for senescent cells and 4000 in the control cells (without prior treatment with Palbociclib). After 24 hours, the cells were incubated with different concentrations of probe Cy7-Gal and its fluorophore (Cy7), with confocal microscopy images being acquired after 30 min of incubation. A more than 10-fold increase in fluorescence emission is observed between senescent cells treated with probe Cy7-Gal and untreated senescent cells (self-fluorescence signal).

4T1 mammary tumours = test: In vivo detection of senescence through urine and bladder fluorescence (IVIS and fluorescence spectroscopy) in mice bearing mammary tumours; set-up: species or system female BALB/cByJ mice
Description: Urine fluorescence measurements were carried out by taking 5 µl of urine and diluting it in distilled water to 100 µl. The samples were obtained by exciting at 535 nm and collecting the absorption maximum at 566 nm.
The Palbociclib was administered through an oral probe daily for 7 days at different concentrations of 10 mg / kg, 50 mg / kg and 100 mg / kg dissolved in 50 mM sodium lactate at pH 5 in order to induce senescence. […] The mice were monitored for 15 minutes post-injection of the probe in the IVIS® equipment following the accumulation of fluorophore Cy7 in the bladder after the hydrolysis of probe Cy7-Gal in the presence of senescent cells.

4T1 cell tumours = test: Ex vivo IVIS fluorescence of extracted tumours and organs; type: in vivo, female BALB/cByJ mice; conditions: after sacrifice, different Palbociclib groups (FIG. 8d)
Description: The mice were kept in the Prince Phillip Research Centre (Centro de Investigación Príncipe Felipe (CIPF)) following the recommendations of the Federation of European Laboratory Animal Science Associations (FELASA). All the processes applied on the animals were approved by the Technical Research Committee for Animal Welfare (Comité Técnico de Investigación para el bienestar de los animals, CElyBA). 4T1 mammary tumours were generated using 4T1 cells: The cells were cultured in DMEM supplemented with 10 % FBS and penicillin-streptomycin. To generate the formation of mammary tumours, the cells were trypsinised and counted with a LUNA ™ automated cell counter and injected by subcutaneous route into the left mammary of 28- to 34-week-old female BALB/CBY mice at a concentration of […] in a volume of 100 µl. The volume of the tumour was measured every two days with a gauge and calculated as V = (a x b2) / 2, wherein a is the longest and b is the shortest of two perpendicular diameters. […] The mice were monitored for 15 minutes post-injection of the probe in the IVIS® equipment following the accumulation of fluorophore Cy7 in the bladder after the hydrolysis of probe Cy7-Gal in the presence of senescent cells. […] The measurement of fluorescence in organs and tumours for the different groups of mice was performed with the IVIS technique.

4T1 cells [2] = test: Viability assay (CellTiter-GLO Luminescent Cell Viability Assay) in control and senescent cells; type: cell-based, mouse; conditions: 4T1 control and senescent cells, different concentrations, 24 h of incubation
Description: Mouse mammary carcinoma 4T1 cells were cultured in DMEM supplemented with 10 % FBS and incubated in 20 % O2 and 5 % CO2 at 37 °C. To obtain cellular senescence, the cells were incubated with 5 µM of Palbociclib in DMEM for one week. Subsequently, the cells were seeded in a flat clear-bottom 96-well plate with a density of 6000 cells for senescent cells and 4000 in the control cells. After 24 h, the cells were treated with different concentrations of probe Cy7-Gal and its fluorophore (Cy7). Viability measurements were obtained after 24 h of incubation using CellTiter-GLO Luminescent Cell Viability Assay as a developer.

CC(=O)OC[C@H]1O[C@@H](Oc2ccc(/C=C/C3=[N+](CCCCS(=O)(=O)[O-])c4ccccc4C3(C)C)cc2/C=C/C2=[N+](CCCCS(=O)(=O)[O-])c3ccccc3C2(C)C)[C@H](OC(C)=O)[C@@H](OC(C)=O)[C@H]1OC(C)=O [Cy7-Gal]
increase in fluorescence emission between senescent cells and control cells (4T1 cells [1]; both incubated in the presence of probe, compared with the more than 10-fold increase over untreated senescent cells, 30 min of incubation): slightly higher
increase in fluorescence emission (4T1 cells [1]; senescent 4T1 cells (5 µM Palbociclib, one week) treated with probe vs untreated senescent cells (self-fluorescence signal), 30 min of incubation): more than 10 fold
selectivity of the probe for detecting senescent cells (4T1 cells [1]; senescent vs control 4T1 cells): high selectivity
expulsion from the organism through urine (4T1 mammary tumours; female mice urinated after coming out from under anaesthesia, monitored 15 minutes post-injection): expelled from the organism
fluorescence emission of the urine samples vs degree of cellular senescence (4T1 mammary tumours; mice with 4T1 tumours given Palbociclib 10, 50 or 100 mg/kg orally for 7 days, then probe 23.3 mg/ml in 100 µl, IVIS and fluorescence spectroscopy): correspondence between the fluorescence emission of the urine samples and the degree of cellular senescence
fluorescence signal in tumours and most representative organs (IVIS) (4T1 cell tumours): a signal is only observed in senescent tumours, and no signal is observed in the different organs
toxicity (viability) (4T1 cells [2]): minimum toxicity
